This is an account of results in ChEMBL document CHEMBL1671625, “Comparative in vitro anti-hepatitis C virus activities of a selected series of polymerase, protease, and helicase inhibitors” (Antimicrob Agents Chemother, 2008).

Data set [1] has as its system Hepatitis C virus. Kind of data set: Antiviral activity against Hepatitis C virus genotype 1b infected in human Huh-Mono cells assessed as reduction in replicon RNA after 4 days by RT-qPCR analysis. Format: functional, organism-based, Hepacivirus hominis. The conditions noted are these: 96 h.
Data set [2] concerns Hepatitis C virus. The data set can be described thus: Antiviral activity against Hepatitis C virus genotype 1b infected in human Huh-9-13 cells assessed as reduction in replicon RNA after 4days by RT-qPCR analysis. Type of data set: functional, organism-based, Hepacivirus hominis. To be noted: 96 h.
Data set [3] in a line: Cytotoxicity against human Huh5-2 cells after 3 days by MTT assay. Type of data set: cell-based, Huh-5-2. For orientation: Tetrazolium assays rely on reduction of a dye to a coloured formazan, in cell work by metabolically active cells.
The test system of data set [4] is Hepatitis C virus. Kind of data set: Antiviral activity against Hepatitis C virus genotype 1b infected in human Huh5-2 cells assessed as reduction in replicon RNA after 4 days by luciferase assay. To be noted: Huh-5-2, 96 h. Type of data set: functional, organism-based, Hepacivirus hominis. In general terms: Replicon systems follow genome replication, usually without infectious particles.

Data set [5] can be described thus: Cytotoxicity against human Huh-9-13 cells after 3 days by MTT assay. Format: cell-based.
Data set [6] concerns Hepatitis C virus. The data set can be described thus: Antiviral activity against Hepatitis C virus genotype 1b infected in human HuH6 cells assessed as reduction in replicon RNA after 4days by RT-qPCR analysis. The conditions noted are these: HuH-6, 96 h. Type of data set: functional, organism-based, Hepacivirus hominis.
Data set [7] can be described thus: Cytotoxicity against human Huh-Mono cells after 3 days by MTT assay. Type of data set: cell-based.
The nature of data set [8]: Cytotoxicity against human HuH6 cells after 3 days by MTT assay. Format: cell-based.

`C[C@@]1(F)[C@H](O)[C@@H](CO)O[C@@H]1n1ccc(N)nc1=O`: the EC50 – broadly, the midpoint of the concentration-response curve – amounted to 5000 nM in the data set with Hepatitis C virus [1], 1700 nM in the data set with Hepatitis C virus [2], 2100 nM in the data set on Hepatitis C virus [4] and 1100 nM with Hepatitis C virus [6]. In addition, the cytotoxic concentration (CC50) at 72 h in data set [3], in data set [5], in data set [7] and in data set [8] was over 33000 nM throughout.
`O=C(O)CNc1ccc(-c2ccc(Cl)cc2)c(COc2ccc(-c3nc4cc(C(=O)O)ccc4n3C3CCCCC3)cc2)c1`: the EC50 in the data set with Hepatitis C virus [1] amounted to 800 nM; in the data set on Hepatitis C virus [2], 1500 nM; in the data set with Hepatitis C virus [4] it was 1100 nM; with Hepatitis C virus [6], 1200 nM. In addition, the CC50 (as a rule, the concentration that lowers cell viability or growth by half) at 72 h came out at 21500 nM in data set [3], 24000 nM in data set [5], 24000 nM in data set [7] and 21000 nM in data set [8].
For the compound `CC(C)CCn1c(=O)c(C2=NS(=O)(=O)c3ccccc3N2)c(O)c2ccccc21`, the EC50 with Hepatitis C virus [1] was 1800 nM; in the data set on Hepatitis C virus [2] it was 600 nM; in the data set with Hepatitis C virus [4] it was 1800 nM; in the data set with Hepatitis C virus [6], 11300 nM. Moreover, the CC50 at 72 h in data set [3], in data set [5], in data set [7] and in data set [8] was over 33000 nM each time.
Turning to `CCC[C@H](NC(=O)[C@@H]1[C@H]2CCC[C@H]2CN1C(=O)[C@@H](NC(=O)[C@@H](NC(=O)c1cnccn1)C1CCCCC1)C(C)(C)C)C(=O)C(=O)NC1CC1`, the concentration for a half-maximal effect (EC50) with Hepatitis C virus [1] amounted to 1000 nM; in the data set on Hepatitis C virus [2], 600 nM; in the data set with Hepatitis C virus [4] it was 1000 nM; with Hepatitis C virus [6], 1000 nM. Also, the CC50 at 72 h in data set [3] is over 33000 nM; in data set [5] it was 24000 nM; in data set [7] it was over 33000 nM; in data set [8] it was 25000 nM.
As to `COc1ccc2c(O[C@@H]3C[C@H]4C(=O)N[C@]5(C(=O)O)C[C@H]5/C=C\CCCCC[C@H](NC(=O)OC5CCCC5)C(=O)N4C3)cc(-c3csc(NC(C)C)n3)nc2c1`, the EC50 came out at 10 nM with Hepatitis C virus [1], 15 nM with Hepatitis C virus [2], 40 nM in the data set with Hepatitis C virus [4] and 4 nM with Hepatitis C virus [6]. Also, the CC50 at 72 h in data set [3], in data set [5], in data set [7] and in data set [8] was over 3000 nM each time.
`C[C@@]1(O)[C@H](O)[C@@H](CO)O[C@H]1n1ccc(N)nc1=O`: the EC50 came out at 700 nM with Hepatitis C virus [1], 400 nM in the data set on Hepatitis C virus [2], 2000 nM with Hepatitis C virus [4] and 700 nM in the data set with Hepatitis C virus [6]. In addition, the CC50 at 72 h is over 33000 nM in data set [3], 25000 nM in data set [5], over 33000 nM in data set [7] and over 33000 nM in data set [8].
With `OC[C@H]1O[C@@H](n2nnc3cc(Cl)c(Cl)cc32)[C@H](O)[C@@H]1O`, the EC50 with Hepatitis C virus [1] was determined as 53000 nM; with Hepatitis C virus [2], 34000 nM; in the data set on Hepatitis C virus [4], 10000 nM; with Hepatitis C virus [6] it was 12000 nM. Moreover, the half-maximal cytotoxic concentration (CC50) at 72 h in data set [3], in data set [5], in data set [7] and in data set [8] was over 100000 nM each time.
For the compound `C[C@@]1(O)[C@H](O)[C@@H](CO)O[C@H]1n1cnc2c(N)ncnc21`, the EC50 with Hepatitis C virus [1] was 1700 nM; in the data set with Hepatitis C virus [2] it was 400 nM; with Hepatitis C virus [4], 120 nM; with Hepatitis C virus [6], 290 nM. Besides, the CC50 at 72 h in data set [3] was over 33000 nM; in data set [5], 21000 nM; in data set [7], over 33000 nM; in data set [8] it was over 33000 nM.
In the case of `[N-]=[N+]=N[C@]1(CO)O[C@@H](n2ccc(N)nc2=O)[C@H](O)[C@@H]1O` [4'-AZIDOCYTIDINE], the EC50 in the data set on Hepatitis C virus [1] came out at 2200 nM; in the data set on Hepatitis C virus [2], 1600 nM; in the data set with Hepatitis C virus [4], 1400 nM; in the data set with Hepatitis C virus [6] it was 6000 nM. In addition, the half-maximal cytotoxic concentration (CC50) at 72 h in data set [3], in data set [5], in data set [7] and in data set [8] was over 33000 nM throughout.
Regarding `C/C=C/C[C@@H](C)[C@@H](O)[C@H]1C(=O)N[C@@H](CC)C(=O)N(C)[C@H](C)C(=O)N(CC)[C@@H](C(C)C)C(=O)N[C@@H](C(C)C)C(=O)N(C)[C@@H](CC(C)C)C(=O)N[C@@H](C)C(=O)N[C@H](C)C(=O)N(C)[C@@H](CC(C)C)C(=O)N(C)[C@@H](CC(C)C)C(=O)N(C)[C@@H](C(C)C)C(=O)N1C` [ALISPORIVIR], the concentration giving a half-maximal response (EC50) in the data set with Hepatitis C virus [1] was found to be 40 nM; with Hepatitis C virus [4] it was 60 nM; with Hepatitis C virus [6], 50 nM. Also, the CC50 at 72 h in data set [3], in data set [5], in data set [7] and in data set [8] was over 3000 nM each time.
Turning to `CC(C)(C)NC(=O)N[C@H](C(=O)N1C[C@H]2[C@@H]([C@H]1C(=O)NC(CC1CCC1)C(=O)C(N)=O)C2(C)C)C(C)(C)C` (some centres undefined) [BOCEPREVIR], the EC50 is 2000 nM in the data set on Hepatitis C virus [1] and 130 nM with Hepatitis C virus [2]. Moreover, the CC50 at 72 h in data set [3], in data set [5], in data set [7] and in data set [8] was over 33000 nM throughout.
On to `C/C=C/C[C@@H](C)[C@@H](O)[C@H]1C(=O)N[C@@H](CC)C(=O)N(C)CC(=O)N(C)[C@@H](CC(C)C)C(=O)N[C@@H](C(C)C)C(=O)N(C)[C@@H](CC(C)C)C(=O)N[C@@H](C)C(=O)N[C@H](C)C(=O)N(C)[C@@H](CC(C)C)C(=O)N(C)[C@@H](CC(C)C)C(=O)N(C)[C@@H](C(C)C)C(=O)N1C` [CYCLOSPORINE], for which the EC50 in the data set on Hepatitis C virus [1] came out at 300 nM; in the data set on Hepatitis C virus [2] it was 500 nM; in the data set on Hepatitis C virus [4] it was 300 nM; in the data set with Hepatitis C virus [6] it was 240 nM.
As for `CNC(=O)c1c(-c2ccc(F)cc2)oc2cc(N(CCO)S(C)(=O)=O)c(C3CC3)cc12` [NESBUVIR], the concentration giving a half-maximal response (EC50) in the data set on Hepatitis C virus [1] was 4 nM; in the data set on Hepatitis C virus [2], 30 nM; in the data set on Hepatitis C virus [4] it was 19 nM; in the data set with Hepatitis C virus [6] it was 20 nM. In addition, the CC50 at 72 h in data set [3], in data set [5], in data set [7] and in data set [8] was over 33000 nM in each case.
For `Brc1c(Br)c(Br)c2[nH]nnc2c1Br` [TETRABROMOBENZOTRIAZOLE], the EC50 with Hepatitis C virus [1] was determined as 61000 nM; in the data set on Hepatitis C virus [2] it was 65000 nM; with Hepatitis C virus [4], 40000 nM; in the data set on Hepatitis C virus [6], 43000 nM. Besides, the CC50 at 72 h in data set [3], in data set [5], in data set [7] and in data set [8] was over 100000 nM each time.
For `O=C(O)c1cccs1` [THIOPHENE CARBOXYLIC ACID], the CC50 at 72 h in data set [3], in data set [5], in data set [7] and in data set [8] was over 33000 nM in each case.
